In PubChem BioAssay AID488890 (Southern Research Specialized Biocontainment Screening …, 2010):
Inconclusive results are not listed. The source made the active and inactive calls. No rule for the calls is given here.

tested on: Mycobacterium tuberculosis non-replicating, growth inhibition; test: growth inhibition of non-replicating M. tuberculosis (AID 488890)

Compound | IC50
O=C(Cc1ccc(F)cc1)Nc1ccc(Cl)cn1 | 14.2 µM (inactive)
CC1CCC/C(=C\Nc2ccc(C(=O)O)c(O)c2)C1=O (stereo not drawn) | < 0.1 µM
COc1cccc(/C=N/NC(=O)c2ccoc2C)c1O | 1.93 µM
NC(N)=N/N=C/c1cccc([N+](=O)[O-])c1O | 2.01 µM
COc1ccccc1/C=N\Nc1cc(C)nc(-n2nc(C)cc2C)n1 | 1.77 µM
O=C(COc1ccccc1)Nc1ccc(Cl)cn1 | 7.51 µM
Cc1ccnc(-n2sc3ccccc3c2=O)n1 | 25.6 µM (inactive)
CCCOC(=O)c1ccc(NC(=O)C2C3C=CC(O3)C2C(=O)O)cc1 (stereo not drawn) | 9.27 µM
O=C(Nc1ncc(Cc2ccccc2Cl)s1)C1=NCCN1 | 4.18 µM
NC(=O)COc1ccc2cc(-c3ccc(F)cc3)c(=O)oc2c1 | 18 µM (inactive)
O=C(NCc1cccs1)c1ccc([N+](=O)[O-])cc1 | 2.84 µM
Cc1ccc(C(=O)N2N=C(CC(C)C)CC2(O)C(F)(F)F)o1 (stereo not drawn) | 6.3 µM
O=C(COc1ccc2ccccc2c1)NNC(=O)c1cccs1 | 4.52 µM
CCOc1ccc(NC(=O)Cn2sc3nc(C)cc(C)c3c2=O)cc1 | 5.5 µM
Cc1cc(C)n(C(=O)c2ccc([N+](=O)[O-])cc2[N+](=O)[O-])n1 | 24.3 µM (inactive)
CSC1=N/C(=C\c2ccc(Br)o2)C(=O)S1 | 28.7 µM (inactive)
N#CC(C(=O)Nc1ccccc1)=C1Nc2ccccc2N1 | 37.8 µM (inactive)
CCN1CCC(=NNC(=O)c2ccco2)CC1 | 42.6 µM (inactive)
O=C(CCS(=O)(=O)c1ccc(Cl)cc1)Oc1ccc2c(c1)OCO2 | 22.7 µM (inactive)
COc1ccc(OC(=O)C(C)N2C(=O)c3ccccc3C2=O)cc1 (stereo not drawn) | 12.3 µM (inactive)

Compound | IC50
COC(=O)C(O)(c1ccc(NC(=S)NC(=O)c2ccccc2)cc1)C(F)(F)F (stereo not drawn) | 14.8 µM (inactive)
CCn1c(NC(=O)c2nn(C)cc2Br)nc2ccccc21 | 4.97 µM
O=C(COc1ccc(Nc2ccccc2)cc1)OCC(=O)N1CCCCC1 | 6.24 µM
Cc1ccc(CSCCNC(=O)c2cccc([N+](=O)[O-])c2)cc1 | 18.4 µM (inactive)
Cn1c(/C=C/c2ccc([N+](=O)[O-])o2)nc2ccccc2c1=O | < 0.1 µM
CCOC(=O)C(Nc1ccc2ccccc2c1)C(=O)OCC | 7.7 µM
COc1ccc(CCOC(=O)c2ccc(N)c([N+](=O)[O-])c2)cc1 | 12.3 µM (inactive)
O=C(Nc1nnc(C2=COCCO2)o1)c1cccc(C(F)(F)F)c1 | 17.7 µM (inactive)
c1coc(CNc2nc(N3CCCCC3)nc3ccccc23)c1 | 2.9 µM
O=C(OCC#CCSc1nnc(-c2ccccc2)o1)c1ccco1 | 1.44 µM
O=C(CC(=O)c1cc(Cl)ccc1O)c1ccccc1 | 2.65 µM
CCOC(=O)c1cc([N+](=O)[O-])c([N+](=O)[O-])cc1NC(C)=O | 2.44 µM
CCN1CCN(c2ccc(S(=O)(=O)N3CCCCC3)cc2NC(=O)c2ccc([N+](=O)[O-])o2)CC1 | 12.6 µM (inactive)
N/C(=N/OC(=O)c1ccccc1Cl)c1ncc([N+](=O)[O-])s1 | 3.15 µM
CCCN1C(=O)S/C(=C\c2ccc(N3CCOCC3)o2)C1=O | 25.2 µM (inactive)
CCOC(=O)CN1NC2(CCC(C)CC2)NC1=S (stereo not drawn) | 15.2 µM (inactive)
O=C(OCc1ccc([N+](=O)[O-])cc1)c1ccc2ccccc2n1 | 4.44 µM
COc1ccc(C(=O)OCn2nnc3ccccc3c2=O)cc1 | 28.6 µM (inactive)
O=C(c1ccc([N+](=O)[O-])s1)N1CCN(c2cccc(Cl)c2)CC1 | 0.38 µM
O=C(COC(=O)CCC(=O)c1ccc(F)cc1)Nc1ccccc1 | 11.1 µM (inactive)

Compound | IC50
Cc1nc2ccccc2n1/N=C/c1ccc([N+](=O)[O-])s1 | 0.32 µM
COC(=O)COc1cccc(NC(=O)COc2ccccc2)c1 | 7.75 µM
CN1C(c2ccccc2)CC(=NO)CC1c1ccccc1 (stereo not drawn) | 11.3 µM (inactive)
COc1ccc(N2C(=O)NC(=O)/C(=C/c3ccc([N+](=O)[O-])s3)C2=O)cc1 | 16.1 µM (inactive)
COc1ccc(-c2nc(C=O)cs2)cc1 | 5.84 µM
O=C(Nc1ccccc1N1CCCC1)c1cccc(F)c1 | 24.4 µM (inactive)
Cc1ccc2[nH]c3c(c2c1)CCCC3NCCO (stereo not drawn) | 13.7 µM (inactive)
CCCN(Cc1nnc(-c2ccccc2Cl)o1)C(=O)c1cc([N+](=O)[O-])cc([N+](=O)[O-])c1 | 5.83 µM
OC(COc1ccccc1Cl)CN1CCN(CC(O)COc2ccccc2Cl)CC1 (stereo not drawn) | 19 µM (inactive)
O=C(Nc1nc(-c2cc(F)ccc2F)cs1)c1ccccn1 | 2.28 µM
Clc1ccc(-c2ccc(CNCc3ccccn3)o2)cc1 | 0.77 µM
CCn1nnc(NC(=O)c2ccc([N+](=O)[O-])o2)n1 | 9.04 µM
COc1ccc(OCCOC(=O)CCS(=O)(=O)c2ccc(C)cc2)cc1 | 24.1 µM (inactive)
O=[N+]([O-])c1cncc([N+](=O)[O-])c1Nc1ccccc1Cl | 5.36 µM
CNC(=O)COC(=O)c1ccc(-c2nc3ccccc3s2)s1 | 4.97 µM
Cc1ccc(NC(=O)C2=C(c3ccccc3)S(=O)(=O)CCS2(=O)=O)cc1 | 2.05 µM
CC1=NN(c2ccc(C(=O)O)cc2)C(=O)/C1=C\c1ccc(OC(=O)c2cccs2)cc1 | 7.5 µM
COc1ccc2oc(=O)c(/C(C)=N/NC(=O)c3ccncc3)cc2c1 | 0.84 µM
